Test results taken from US4882171A, “Vanadium-peroxide compositions as insulin mimickers” (priority 1986, dated 1989).

What was measured:
[1] = system: 125I-IGF-2 binding, rat adipocytes; assay: IGF-2 binding to rat adipocytes (Example 1, Table 1); type: cell-based; conditions: insulin 10 ng/ml, vanadate 1 mM and/or H2O2 1 mM, 15 min preincubation at 37° C.; control = 125I-IGF-2 alone
[2] = system: adipocytes (protein synthesis); assay: Protein synthesis in adipocytes, 3H-leucine incorporation (Example 5, Table 2); type: cell-based
Experimental: Adipocytes were isolated by collagenase digestion and protein synthesis was assessed by the incorporation 3,4,5-^3 H-leucine (0.5 uCi/ml) over 1 h at 37° C. into trichloroacetic acid (10%) precipitable material.
This was followed by a 1 h incubation with radiolabelled leucine. The reaction was terminated by the addition of cold TCA and centrifugation. The pellet was counted in a beta counter.

[3] = system: 125I-IGF-II binding, rat adipocytes; assay: Binding of labelled IGF-II to rat adipocytes, vanadate dose response (Example 2, FIG. 2); type: cell-based; conditions: vanadate alone; % of that seen with maximal doses of insulin
Experimental: Determination of ^125 I-IGF-II binding (shown in FIG. 2) is achieved by incubating adipocytes with vanadate (white circles on Figure); hydrogen peroxide (1mM) plus vanadate (black circles); and insulin (black squares) for 15 minutes at 37 C. Each value shown is the mean ± S.E. (Standard Error) of three separate experiments.

[4] = system: insulin receptor tyrosine kinase; assay: Insulin receptor tyrosine kinase activation in adipocytes, 32P incorporation into poly (Glu, Tyr) (Example 3, FIG. 3); type: cell-based, rat
[5] = system: rat adipocytes (lipogenesis); assay: Lipogenesis in rat adipocytes (Example 4); type: cell-based; conditions: 10^-7 M vanadate with H2O2 10^-3 M equals vanadate alone at 10^-4 M
[6] = system: rat adipocytes (lipolysis); assay: Lipolysis in rat adipocytes (Example 4); type: cell-based; conditions: vanadate with H2O2 10^-3 M, or vanadate alone
[7] = Blood glucose in live rats after jugular vein injection (Example 6A); type: in vivo, rat; conditions: 0.2 to 0.4 ml of 1 mM solution, 200 g rats
Experimental: In live rat studies vanadate (sodium salt) and the reaction mixture (phosphate-buffered saline containing vanadate and H2 O2 at neutral pH) was injected into 200 g rats via the internal jugular vein. […] This decrease was short-lived.

[8] = Blood sugar in intact rats after jugular vein injection (Example 6B); type: in vivo, rat (male Sprague-Dawley); conditions: 0.5 ml of 2 mM vanadate
Experimental: Solutions were injected into the jugular vein and blood samples were removed for determination of blood sugar by a standard glucose oxidase procedure.

[9] = system: 125I-IGF-2 cell surface binding, fat cell; conditions: vanadate alone; cited from earlier work
diabetic rats = conditions: drinking water; cited from earlier work

Row | Molecule | IGF-2 binding, % of control [1] | activity at 100 µM ([2]; Adipocyte, 100 uM (H2O2 concentration), 2 h at 37° C., then 1 h radiolabelled leucine, n=4-5, read-out: Leucine Incorp (% of control ± S.E.)) | maximal effect relative to maximal doses of insulin (IGF-II binding) [3] | augmentation of kinase activity over control ([4]; 10^-3 M alone) | vanadate concentration giving equal augmentation of lipogenesis [5] | vanadate concentration inhibiting lipolysis maximally [6] | Leucine Incorp (% of control ± S.E.) ([2]; 2 uM, 2 h at 37° C., then 1 h radiolabelled leucine, n=2) | Leucine Incorp (% of control ± S.E.) ([2]; 10 uM, 2 h at 37° C., then 1 h radiolabelled leucine, n=6) | Leucine Incorp (% of control ± S.E.) ([2]; 50 uM, 2 h at 37° C., then 1 h radiolabelled leucine, n=5) | Leucine Incorp (% of control ± S.E.) ([2]; 100 uM (H2O2 concentration), 2 h at 37° C., then 1 h radiolabelled leucine, n=4-5) | stimulation of leucine incorporation (in words) ([2]; vanadate alone, 2-100 uM) | effect on blood glucose (in words) [7] | effect in lowering blood sugar (in words) [8] | insulin mimicking action (in words) [9] | effect on blood glucose (in words) (diabetic rats) | effect on cardiac performance (in words) (diabetic rats) | augmentation of kinase activity over control ([4]; insulin 10 ng/ml alone)
1 | OO [H2 O2, hydrogen peroxide] | 138 ± 12 % of control | 105 ± 4.7% | – | – | – | – | – | – | – | – | – | – | – | – | – | – | –
2 | [O]=[V]([O-])([O-])[O-] [Vanadate, vanadate] | 172 ± 10 % of control | – | about 60% | 32% | 10^-4 M | 10^-3 M | 101 ± 5.0 % of control | 104 ± 3.5 % of control | 105 ± 6.0 % of control | 107 ± 8.0 % of control | does not significantly stimulate leucine incorporation | no effect | no effect at all | weak mimicker of insulin action | lower blood glucose | improve cardiac performance | –
3 | Insulin: insulin | – | – | – | – | – | – | – | – | – | – | – | – | – | – | – | – | 349%
